Experimental data published in US7429578B2, “Tricyclic inhibitors of poly(ADP-ribose) polymerases” (Agouron Pharmaceuticals, Inc., priority 1999, dated 2008).
Where “and” joins values, the source holds several entries; their conditions need not be identical. Equal entries are not always repeated.

Tests used:
[1] = system: A549 cells; assay: Cytotoxicity potentiation assay (topotecan); type: cell-based; settings: test compound at 0.4 μM, ratio of IC50 of topotecan alone to IC50 of topotecan with test compound
[2] = target: purified PARP protein (Homo sapiens, UniProt P09874); assay: PARP enzyme inhibition assay; type: biochemical; settings: [32P]NAD+ incorporation, 500 μM NAD+, 25° C.; two values in a cell = tested twice; read-out: Inhibition Constant Ki
purified PARP protein, sequence (P09874 whole entry): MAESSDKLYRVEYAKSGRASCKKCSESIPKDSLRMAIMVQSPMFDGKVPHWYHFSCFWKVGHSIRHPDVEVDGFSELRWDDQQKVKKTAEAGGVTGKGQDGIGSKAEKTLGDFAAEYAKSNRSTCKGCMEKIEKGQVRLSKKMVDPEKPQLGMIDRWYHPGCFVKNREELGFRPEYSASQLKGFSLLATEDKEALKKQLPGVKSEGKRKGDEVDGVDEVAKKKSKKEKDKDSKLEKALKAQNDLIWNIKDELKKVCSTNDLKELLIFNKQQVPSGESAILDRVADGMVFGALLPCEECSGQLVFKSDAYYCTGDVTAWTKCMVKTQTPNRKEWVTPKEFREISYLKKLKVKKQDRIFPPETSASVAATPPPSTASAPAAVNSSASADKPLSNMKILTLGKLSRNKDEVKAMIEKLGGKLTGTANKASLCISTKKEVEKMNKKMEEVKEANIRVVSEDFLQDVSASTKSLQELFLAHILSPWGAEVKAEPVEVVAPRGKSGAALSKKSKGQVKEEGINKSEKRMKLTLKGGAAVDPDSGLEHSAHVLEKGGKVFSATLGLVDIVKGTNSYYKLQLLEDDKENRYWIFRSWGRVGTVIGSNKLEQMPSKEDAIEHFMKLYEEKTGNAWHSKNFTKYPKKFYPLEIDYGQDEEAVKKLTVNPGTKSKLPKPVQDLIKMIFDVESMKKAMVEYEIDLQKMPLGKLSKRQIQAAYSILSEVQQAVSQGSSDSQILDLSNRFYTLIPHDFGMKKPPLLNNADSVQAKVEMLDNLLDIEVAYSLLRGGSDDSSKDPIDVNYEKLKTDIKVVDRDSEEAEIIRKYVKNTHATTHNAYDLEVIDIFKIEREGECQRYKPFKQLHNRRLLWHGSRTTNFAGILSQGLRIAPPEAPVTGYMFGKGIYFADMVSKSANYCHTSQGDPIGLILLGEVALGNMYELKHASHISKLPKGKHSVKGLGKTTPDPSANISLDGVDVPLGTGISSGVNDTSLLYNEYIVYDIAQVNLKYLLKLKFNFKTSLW

Row | melting point | Ki [2] | SMILES | Cytotoxicity Potentiation PF50 [1]
1 | – | – | CN(C)Cc1ccc(-c2[nH]c3cccc4c3c2CNC4=O)cc1 [Compound 6] | 2.2
2 | 194 to 195 °C | 62 nM | Cn1cc2c3c(cccc31)C(=O)NCC2 [Compound 19, 1-N-Methyl-3,4,5,6-tetrahydro-1H-azepino[5,4,3-cd]indol-6-one] | –
3 | – | – | CN(C)Cc1ccc(-c2[nH]c3cccc4c3c2CCNC4=O)cc1 [Compound 21, 2-(4-(N,N-Dimethylamino)methylphenyl)-3,4,5,6-tetrahydro-1H-azepino[5,4,3-cd]indol-6-one] | 2.4
4 | – | – | O=C1NCCc2c(-c3ccc(F)cc3)[nH]c3cccc1c23 [Compound 23, 2-(4-Fluorophenyl)-3,4,5,6-tetrahydro-1H-azepino[5,4,3-cd]indol-6-one] | 2.3
5 | 208 to 209 °C | 5 nM | O=C1NCCc2c(-c3ccc(C(F)(F)F)cc3)[nH]c3cccc1c23 [Compound 31, 2-(4-Trifluoromethyl-phenyl)-1,3,4,5-tetrahydro-azepino[5,4,3-cd]indol-6-one] | –
6 | 207 °C (dec.) | 11.3 nM | O=C1NCCc2c(-c3cc4ccccc4o3)[nH]c3cccc1c23 [Compound 32, 2-Benzofuran-2-yl-1,3,4,5-tetrahydro-azepino[5,4,3-cd]indol-6-one] | –
7 | 230 °C (dec.) | 230 nM | O=C1NCCc2c(-c3cc(C(F)(F)F)cc(C(F)(F)F)c3)[nH]c3cccc1c23 [Compound 33, 2-(3,5-bis-Trifluoromethyl-phenyl)-1,3,4,5-tetrahydro-azepino[5,4,3-cd]indol-6-one] | –
8 | 160 °C (dec.) | 3.9 nM | O=C1NCCc2c(-c3ccc(Br)cc3)[nH]c3cccc1c23 [Compound 34, 2-(4-Bromophenyl)-1,3,4,5-tetrahydro-azepino[5,4,3-cd]indol-6-one] | –
9 | 243 to 244 °C | 29 nM | CC(C)(C)c1ccc(-c2[nH]c3cccc4c3c2CCNC4=O)cc1 [Compound 36, 2-(4-tert-Butyl-phenyl)-1,3,4,5-tetrahydro-azepino[5,4,3-cd]indol-6-one] | –
10 | 207 to 208 °C | 24 nM | O=C1NCCc2c(CCc3ccccc3)[nH]c3cccc1c23 [Compound 37, 2-Phenethyl-1,3,4,5-tetrahydro-azepino[5,4,3-cd]indol-6-one] | –
11 | 275 °C (dec.) | 8.4 nM | O=C1NCCc2c(-c3ccccc3Cl)[nH]c3cccc1c23 [Compound 38, 2-(2-Chlorophenyl)-1,3,4,5-tetrahydro-azepino[5,4,3-cd]indol-6-one] | –
12 | 196 to 197 °C | 4.8 nM | O=C1NCCc2c(-c3ccc(F)cc3F)[nH]c3cccc1c23 [Compound 39, 2-(2,4-Difluoro-phenyl)-1,3,4,5-tetrahydro-azepino[5,4,3-cd]indol-6-one] | –
13 | 147 to 149 °C | 5.2 nM | O=C1NCCc2c(-c3cccc(Cl)c3)[nH]c3cccc1c23 [Compound 40, 2-(3-Chlorophenyl)-1,3,4,5-tetrahydro-azepino[5,4,3-cd]indol-6-one] | –
14 | 266 to 267 °C | 5.1 nM | COC(=O)c1[nH]c2cccc3c2c1CCNC3=O [Compound 42, 6-Oxo-3,4,5,6-tetrahydro-1H-azepino[5,4,3-cd]indole-2-carboxylic acid methyl ester] | –
15 | 300.5 to 302 °C | 12.2 nM and 4.2 nM | CC(=O)Nc1cccc(-c2[nH]c3cccc4c3c2CCNC4=O)c1 [Compound TT, N-[3-(6-Oxo-3,4,5,6-tetrahydro-1H-azepino[5,4,3-cd]indol-2-yl)-phenyl]-acetamide] | –
16 | 224 to 224.5 °C (dec.) | 15.1 nM | CCN(CC)CCc1ccc(-c2[nH]c3cccc4c3c2CCNC4=O)cc1 [Compound YY, 2-[4-(2-Diethylamino-ethyl)-phenyl]-3,4,5,6-tetrahydro-azepino[5,4,3-cd]indol-6-one] | –
17 | 305 °C (dec.) | 23 nM | O=C1NCCc2c(-c3ccccc3O)[nH]c3cccc1c23 [DDD, 2-(2-Hydroxy-phenyl)-1,3,4,5-tetrahydro-azepino[5,4,3-cd]indol-6-one] | –
18 | 315 °C (dec.) | 10.6 nM | N#Cc1[nH]c2cccc3c2c1CCNC3=O [EEE, 6-Oxo-3,4,5,6-tetrahydro-1H-azepino[5,4,3-cd]indole-2-carbonitrile] | –
19 | 250 to 251 °C | 2.9 nM | CSc1ccc(-c2[nH]c3cccc4c3c2CCNC4=O)cc1 [EEEE, 2-(4-Methylsulfanyl-phenyl)-1,3,4,5-tetrahydro-azepino[5,4,3-cd]indol-6-one] | –
20 | 170 to 171 °C | 125 nM | CCCCCCCCOC(=O)c1[nH]c2cccc3c2c1CCNC3=O [FFF, 6-Oxo-3,4,5,6-tetrahydro-1H-azepino[5,4,3-cd]indole-2-carboxylic acid octyl ester] | –
21 | 316 to 317 °C (dec.) | 4.7 nM | C[S+]([O-])c1ccc(-c2[nH]c3cccc4c3c2CCNC4=O)cc1 (centres unmarked) [FFFF, 2-(4-Methanesulfinyl-phenyl)-1,3,4,5-tetrahydro-azepino[5,4,3-cd]indol-6-one] | –

Row | melting point | Ki [2] | SMILES | Cytotoxicity Potentiation PF50 [1]
22 | 308 to 309 °C (dec.) | 6.2 nM | CS(=O)(=O)c1ccc(-c2[nH]c3cccc4c3c2CCNC4=O)cc1 [GGGG, 2-(4-Methanesulfonyl-phenyl)-1,3,4,5-tetrahydro-azepino[5,4,3-cd]indol-6-one] | –
23 | 254 to 255 °C | 40 nM | COc1ccccc1-c1[nH]c2cccc3c2c1CCNC3=O [III, 2-(2-Methoxy-phenyl)-1,3,4,5-tetrahydro-azepino[5,4,3-cd]indol-6-one] | –
24 | – | – | CNCc1ccc(-c2[nH]c3cc(F)cc4c3c2CCNC4=O)cc1 [IIII, 8-Fluoro-2-(4-methylaminomethyl-phenyl)-1,3,4,5-tetrahydro-azepino[5,4,3-cd]indol-6-one] | 2.6
25 | 250 °C (dec.) | 5.3 nM | O=C1NCCc2c(-c3ccncc3)[nH]c3cccc1c23 [JJJ, 2-Pyridin-4-yl-1,3,4,5-tetrahydro-azepino[5,4,3-cd]indol-6-one] | –
26 | 271 to 272 °C | 32 nM | CSc1ccccc1-c1[nH]c2cccc3c2c1CCNC3=O [LLL, 2-(2-Methylsulfanyl-phenyl)-1,3,4,5-tetrahydro-azepino[5,4,3-cd]indol-6-one] | –
27 | 330 to 332 °C (dec.) | 10 nM | O=C(Nc1cccc2ccccc12)c1[nH]c2cccc3c2c1CCNC3=O [NNNN, 6-Oxo-1,3,4,5-tetrahydro-1H-azepino[5,4,3-cd]indole-2-carboxylic Acid naphthalen-1-ylamide] | –
28 | 321 to 322 °C (dec.) | 14 nM | CNC(=O)c1[nH]c2cccc3c2c1CCNC3=O [OOO, 6-Oxo-3,4,5,6-tetrahydro-1H-azepino[5,4,3-cd]indole-2-carboxylic acid methylamide] | –
29 | 191 to 192 °C | 13 nM | C#CCNC(=O)c1[nH]c2cccc3c2c1CCNC3=O [OOOO, 6-Oxo-1,3,4,5-tetrahydro-1H-azepino[5,4,3-cd]indole-2-carboxylic acid prop-2-ynylamide] | –
30 | 261 to 262 °C (dec.) | 32 nM | CC(C)NC(=O)c1[nH]c2cccc3c2c1CCNC3=O [PPPP, 6-Oxo-1,3,4,5-tetrahydro-1H-azepino[5,4,3-cd]indole-2-carboxylic acid isopropylamide] | –
31 | 335 to 336 °C | 5.5 nM and 4.5 nM | CC1=NNC(=O)c2cccc3[nH]cc1c23 [QQ, 1,5-Dihydro-3-methyl-[1,2]diazepino[4,5,6-cd]-indol-6-one] | –
32 | 160 to 163 °C | 23 nM | O=C1NCCc2c(-c3cccc(-c4ccccc4)c3)[nH]c3cccc1c23 [RRR, 2-Biphenyl-3-yl-1,3,4,5-tetrahydro-azepino[5,4,3-cd]indol-6-one] | –
33 | 160 to 162 °C | 66 nM | COc1ccc(Cl)cc1-c1[nH]c2cccc3c2c1CCNC3=O [SSS, 2-(5-Chloro-2-methoxy-phenyl)-3,4,5,6-tetrahydro-azepino[5,4,3-cd]indol-6-one] | –
34 | 235 to 237 °C | 14 nM | O=C1NCCc2c(-c3cccc(CN4CCCCC4)c3)[nH]c3cccc1c23 [SS] | –
35 | 261 to 262 °C (dec.) | 11.4 nM | Nc1cccc(C#Cc2[nH]c3cccc4c3c2CCNC4=O)c1 [UUU, 2-(3-Amino-phenylethynyl)-1,3,4,5-tetrahydro-azepino[5,4,3-cd]indol-6-one] | –
36 | – | – | O=C1NCCc2c(-c3ccc(CN4CCCC4)cc3)[nH]c3cccc1c23 [UUUU, 2-(4-Pyrrolidin-1-ylmethylphenyl)-3,4,5,6-tetrahydro-1H-azepino[5,4,3-cd]indol-6-one] | 2.0
37 | 118.5 to 119 °C | 4.4 nM | O=C1NCCc2c(-c3ccc(Cl)c(C(F)(F)F)c3)[nH]c3cccc1c23 [WW, 2-(4-Chloro-3-trifluoromethyl-phenyl)-1,3,4,5-tetrahydro-azepino[5,4,3-cd]indol-6-one] | –
38 | 345.5 to 346.5 °C (dec.) | 263 nM | O=C(O)c1ccc(-c2[nH]c3cccc4c3c2CCNC4=O)cc1 [WWW, 4-(6-Oxo-3,4,5,6-tetrahydro-1H-azepino[5,4,3-cd]indol-2-yl)-benzoic Acid] | –
39 | 261 to 262 °C | 4.6 nM | O=C1NCCc2c(-c3ccc4ccccc4c3)[nH]c3cccc1c23 [XX, 2-Naphthalen-2-yl-1,3,4,5-tetrahydro-azepino[5,4,3-cd]indol-6-one] | –
40 | 298 to 299 °C (dec.) | 370 nM | O=C(O)c1[nH]c2cccc3c2c1CCNC3=O [XXX, 6-Oxo-3,4,5,6-tetrahydro-1H-azepino[5,4,3-cd]indole-2-carboxylic Acid] | –
41 | 187.5 to 188.5 °C | 9.7 nM | O=C1NCCc2c(-c3cccc(CCO)c3)[nH]c3cccc1c23 [ZZ, 2-[3-(2-Hydroxy-ethyl)-phenyl]-1,3,4,5-tetrahydro-azepino[5,4,3-cd]indol-6-one] | –
